# Source: patent publication US7678791B2, “Nitroheteroaryl-containing rifamycin derivatives” (Cumbre IP Ventures, L.P., priority 2006, dated 2010)
# Test system: Mycobacterium tuberculosis H37Rv (rif-resistant)
# Test: microbe, parasite or virus in culture
# Type: cell-based
smiles,measurement,setting,value
"CO[C@H]1/C=C/O[C@@]2(C)Oc3c(C)c(O)c4c(c3C2=O)C2=NC3(CCN(CCn5c([N+](=O)[O-])cnc5C)CC3)NC2=C(NC(=O)/C(C)=C\C=C\[C@H](C)[C@H](O)[C@@H](C)[C@@H](O)[C@@H](C)[C@H](OC(C)=O)[C@@H]1C)C4=O [Example 1, 4-Deoxy-3,4-[2-spiro-[1-[2-(2-methyl-5-nitro-imidazol-1-yl)ethyl]-piperidin-4-yl]]-(1H)-imidazo-(2,5-dihydro)rifamycin S]","antimicrobial activity in words, rifampin-resistant M. tuberculosis",,retains activity
same,MIC,"Mycobacterium tuberculosis, H37RV",5 mg/L
